Literature values as cited in patent publication US20260108469A1, “COMPOSITIONS COMPRISING WATER INSOLUBLE DRUGS AND METHODS OF PRODUCING AND USING SAME” (priority 2023, published 2026).

Compound	solubility in water-based solutions	solubility in water (water) [mg/mL]
CCc1c2c(nc3ccc(O)cc13)-c1cc3c(c(=O)n1C2)COC(=O)[C@]3(O)CC [SN-38, 7-ethyl-10-hydroxycamptothecin]	not soluble in water-based solutions	–
CVKRGLKLRHVRPRVTRMDV (cell penetrating peptide (CPP)) [20 amino acid cell penetrating peptide, DPV1047 with an added N-terminal Cys]	–	> 500
